According to patent US12497393B2, “β-lactam compound, use thereof and preparation method therefor” (priority 2020, dated 2025):
In brackets after ≈: the same amount, converted by molar mass.

tested on: Acinetobacter baumannii; assay: Antibacterial activity MIC assay (two-fold dilution agar plating); type: cell-based; details: Acinetobacter baumannii, ATCC19606, Acinetobacter baumannii ATCC 19606; read-out: Minimal Inhibitory Concentration (MIC)
Description: (§1) Antibacterial Activity-Evaluating Method (MIC Assay)
(§2) In this study, the compounds of the present invention were tested for their antibacterial activities by using two-fold dilution agar plating method and Denley Multipoint Inoculator A400 according to the guidelines of the CLSI/NCCLS standard. The tested strains were amplified by hydrolyzed casein peptone (Mueller-Hinton Agar) broth and Brain and Heart Infusion. The strains used in this study were bacterial strains that were purchased from ATCC or clinically isolated in Chinese hospitals. Aztreonam, polymyxin or levofloxacin was used as positive control. The drugs were diluted with hydrolyzed casein peptone broth to the desired concentrations including 128.0, 64.0, 32.0, 16.0, 8.0, 4.0, 2.0, 1.0, 0.5, 0.25, 0.125, 0.06 and 0.03 μg/mL, and then placed respectively into each well and mixed thoroughly. After inoculation, the tested strains were incubated for 18 hours at a constant temperature of 35° C., and their growth levels were observed. The drug concentration with no microbial growth in the well was recorded as the lowest Minimal Inhibitory Concentration (MIC).

SMILES	MIC [µg/mL]
CC1(C)[C@H](NC(=O)/C(=N\OC2(C(=O)O)CCC2)c2csc(N)n2)C(=O)N1OS(=O)(=O)O [Compound A-2]	16 (≈ 33.5 µM)

same assay, conditions: Acinetobacter baumannii, Acinetobacter baumannii 16-16; read-out: Minimal Inhibitory Concentration (MIC)

SMILES	MIC [µg/mL]
CC1(C)[C@H](NC(=O)/C(=N\OC2(C(=O)O)CCC2)c2csc(N)n2)C(=O)N1OS(=O)(=O)O [Compound A-2]	> 64

same assay, conditions: Acinetobacter baumannii, Acinetobacter baumannii 16-33; read-out: Minimal Inhibitory Concentration (MIC)

SMILES	MIC [µg/mL]
CC1(C)[C@H](NC(=O)/C(=N\OC2(C(=O)O)CCC2)c2csc(N)n2)C(=O)N1OS(=O)(=O)O [Compound A-2]	16 (≈ 33.5 µM)

tested on: Citrobacter freundii; assay: as above; type: cell-based; details: ATCC43864; Citrobacter freundii ATCC 43864; read-out: Minimal Inhibitory Concentration (MIC)
Description: as §1, §2

SMILES	MIC [µg/mL]
CC1(C)[C@H](NC(=O)/C(=N\OC2(C(=O)O)CCC2)c2csc(N)n2)C(=O)N1OS(=O)(=O)O [Compound A-2]	0.12 (≈ 0.251 µM)

tested on: Enterobacter aerogenes; assay: as above; type: cell-based; details: Klebsiella aerogenes, ATCC13048; Enterobacter aerogenes ATCC 13048; read-out: Minimal Inhibitory Concentration (MIC)
Description: as §1, §2

SMILES	MIC [µg/mL]
CC1(C)[C@H](NC(=O)/C(=N\OC2(C(=O)O)CCC2)c2csc(N)n2)C(=O)N1OS(=O)(=O)O [Compound A-2]	1 (≈ 2.09 µM)

tested on: Enterobacter cloacae; assay: as above; type: cell-based; details: ATCC43560; Enterobacter cloacae ATCC 43560; read-out: Minimal Inhibitory Concentration (MIC)
Description: as §1, §2

SMILES	MIC [µg/mL]
CC1(C)[C@H](NC(=O)/C(=N\OC2(C(=O)O)CCC2)c2csc(N)n2)C(=O)N1OS(=O)(=O)O [Compound A-2]	0.12 (≈ 0.251 µM)

same assay, conditions: Enterobacter cloacae CDC1000654; read-out: Minimal Inhibitory Concentration (MIC)

SMILES	MIC [µg/mL]
CC1(C)[C@H](NC(=O)/C(=N\OC2(C(=O)O)CCC2)c2csc(N)n2)C(=O)N1OS(=O)(=O)O [Compound A-2]	2 (≈ 4.19 µM)

tested on: Escherichia coli; assay: as above; type: cell-based; details: Escherichia coli, ATCC25922, Escherichia coli ATCC 25922, ESBLs(−); read-out: Minimal Inhibitory Concentration (MIC)
Description: as §1, §2

SMILES	MIC [µg/mL]
CC1(C)[C@H](NC(=O)/C(=N\OC2(C(=O)O)CCC2)c2csc(N)n2)C(=O)N1OS(=O)(=O)O [Compound A-2]	0.12 (≈ 0.251 µM)

same assay, conditions: Escherichia coli, ATCC35218, Escherichia coli ATCC 35218, ESBLs(+); read-out: Minimal Inhibitory Concentration (MIC)

SMILES	MIC [µg/mL]
CC1(C)[C@H](NC(=O)/C(=N\OC2(C(=O)O)CCC2)c2csc(N)n2)C(=O)N1OS(=O)(=O)O [Compound A-2]	0.06 (≈ 0.126 µM)

same assay, conditions: Escherichia coli, Escherichia coli 08-85, mcr-1(+); read-out: Minimal Inhibitory Concentration (MIC)

SMILES	MIC [µg/mL]
CC1(C)[C@H](NC(=O)/C(=N\OC2(C(=O)O)CCC2)c2csc(N)n2)C(=O)N1OS(=O)(=O)O [Compound A-2]	0.12 (≈ 0.251 µM)

same assay, conditions: Escherichia coli, Escherichia coli 13-43, mcr-1(+); read-out: Minimal Inhibitory Concentration (MIC)

SMILES	MIC [µg/mL]
CC1(C)[C@H](NC(=O)/C(=N\OC2(C(=O)O)CCC2)c2csc(N)n2)C(=O)N1OS(=O)(=O)O [Compound A-2]	0.12 (≈ 0.251 µM)

same assay, conditions: Escherichia coli, Escherichia coli 13-66, mcr-1(+); read-out: Minimal Inhibitory Concentration (MIC)

SMILES	MIC [µg/mL]
CC1(C)[C@H](NC(=O)/C(=N\OC2(C(=O)O)CCC2)c2csc(N)n2)C(=O)N1OS(=O)(=O)O [Compound A-2]	0.12 (≈ 0.251 µM)

same assay, conditions: Escherichia coli, Escherichia coli 16-1, ESBLs(+); read-out: Minimal Inhibitory Concentration (MIC)

SMILES	MIC [µg/mL]
CC1(C)[C@H](NC(=O)/C(=N\OC2(C(=O)O)CCC2)c2csc(N)n2)C(=O)N1OS(=O)(=O)O [Compound A-2]	0.06 (≈ 0.126 µM)

same assay, conditions: Escherichia coli, Escherichia coli 16-7, ESBLs(−); read-out: Minimal Inhibitory Concentration (MIC)

SMILES	MIC [µg/mL]
CC1(C)[C@H](NC(=O)/C(=N\OC2(C(=O)O)CCC2)c2csc(N)n2)C(=O)N1OS(=O)(=O)O [Compound A-2]	0.12 (≈ 0.251 µM)

same assay, conditions: Escherichia coli, Escherichia coli 17-R28, CRE, NDM-1(+); read-out: Minimal Inhibitory Concentration (MIC)

SMILES	MIC [µg/mL]
CC1(C)[C@H](NC(=O)/C(=N\OC2(C(=O)O)CCC2)c2csc(N)n2)C(=O)N1OS(=O)(=O)O [Compound A-2]	16 (≈ 33.5 µM)

same assay, conditions: Escherichia coli, Escherichia coli CDC1001728, NDM-1(+); read-out: Minimal Inhibitory Concentration (MIC)

SMILES	MIC [µg/mL]
CC1(C)[C@H](NC(=O)/C(=N\OC2(C(=O)O)CCC2)c2csc(N)n2)C(=O)N1OS(=O)(=O)O [Compound A-2]	0.5 (≈ 1.05 µM)

tested on: Klebsiella Pneumoniae; assay: as above; type: cell-based; details: Klebsiella pneumoniae, ATCC700603, Klebsiella Pneumoniae ATCC 700603, ESBLs(+); read-out: Minimal Inhibitory Concentration (MIC)
Description: as §1, §2

SMILES	MIC [µg/mL]
CC1(C)[C@H](NC(=O)/C(=N\OC2(C(=O)O)CCC2)c2csc(N)n2)C(=O)N1OS(=O)(=O)O [Compound A-2]	1 (≈ 2.09 µM)

same assay, conditions: Klebsiella pneumoniae, ATCCBAA2146, Klebsiella Pneumoniae ATCC BAA-2146, NDM-1(+); read-out: Minimal Inhibitory Concentration (MIC)

SMILES	MIC [µg/mL]
CC1(C)[C@H](NC(=O)/C(=N\OC2(C(=O)O)CCC2)c2csc(N)n2)C(=O)N1OS(=O)(=O)O [Compound A-2]	0.25 (≈ 0.524 µM)

same assay, conditions: Klebsiella pneumoniae, Klebsiella Pneumoniae 09-20, mcr-1(+); read-out: Minimal Inhibitory Concentration (MIC)

SMILES	MIC [µg/mL]
CC1(C)[C@H](NC(=O)/C(=N\OC2(C(=O)O)CCC2)c2csc(N)n2)C(=O)N1OS(=O)(=O)O [Compound A-2]	0.12 (≈ 0.251 µM)

same assay, conditions: Klebsiella pneumoniae, Klebsiella Pneumoniae 16-2, ESBLs(−); read-out: Minimal Inhibitory Concentration (MIC)

SMILES	MIC [µg/mL]
CC1(C)[C@H](NC(=O)/C(=N\OC2(C(=O)O)CCC2)c2csc(N)n2)C(=O)N1OS(=O)(=O)O [Compound A-2]	2 (≈ 4.19 µM)

same assay, conditions: Klebsiella pneumoniae, Klebsiella Pneumoniae 16-14, ESBLs(+); read-out: Minimal Inhibitory Concentration (MIC)

SMILES	MIC [µg/mL]
CC1(C)[C@H](NC(=O)/C(=N\OC2(C(=O)O)CCC2)c2csc(N)n2)C(=O)N1OS(=O)(=O)O [Compound A-2]	0.12 (≈ 0.251 µM)

same assay, conditions: Klebsiella pneumoniae, Klebsiella Pneumoniae 17-R27, CRE; read-out: Minimal Inhibitory Concentration (MIC)

SMILES	MIC [µg/mL]
CC1(C)[C@H](NC(=O)/C(=N\OC2(C(=O)O)CCC2)c2csc(N)n2)C(=O)N1OS(=O)(=O)O [Compound A-2]	0.25 (≈ 0.524 µM)

tested on: Proteus mirabilis; assay: as above; type: cell-based; details: Proteus mirabilis, ATCC49565, Proteus mirabilis ATCC 49565; read-out: Minimal Inhibitory Concentration (MIC)
Description: as §1, §2

SMILES	MIC [µg/mL]
CC1(C)[C@H](NC(=O)/C(=N\OC2(C(=O)O)CCC2)c2csc(N)n2)C(=O)N1OS(=O)(=O)O [Compound A-2]	≤ 0.03

tested on: Proteus vulgaris; assay: as above; type: cell-based; details: Proteus vulgaris, ATCC29905, Proteus vulgaris ATCC 29905; read-out: Minimal Inhibitory Concentration (MIC)
Description: as §1, §2

SMILES	MIC [µg/mL]
CC1(C)[C@H](NC(=O)/C(=N\OC2(C(=O)O)CCC2)c2csc(N)n2)C(=O)N1OS(=O)(=O)O [Compound A-2]	≤ 0.03

tested on: Providencia rettgeri; assay: as above; type: cell-based; details: Providencia rettgeri, ATCC31052, Providencia rettgeri ATCC 31052; read-out: Minimal Inhibitory Concentration (MIC)
Description: as §1, §2

SMILES	MIC [µg/mL]
CC1(C)[C@H](NC(=O)/C(=N\OC2(C(=O)O)CCC2)c2csc(N)n2)C(=O)N1OS(=O)(=O)O [Compound A-2]	≤ 0.03

tested on: Pseudomonas aeruginosa; assay: as above; type: cell-based; details: ATCC27853; Pseudomonas aeruginosa ATCC 27853; read-out: Minimal Inhibitory Concentration (MIC)
Description: as §1, §2

SMILES	MIC [µg/mL]
CC1(C)[C@H](NC(=O)/C(=N\OC2(C(=O)O)CCC2)c2csc(N)n2)C(=O)N1OS(=O)(=O)O [Compound A-2]	4 (≈ 8.38 µM)

same assay, conditions: Pseudomonas aeruginosa 16-11; read-out: Minimal Inhibitory Concentration (MIC)

SMILES	MIC [µg/mL]
CC1(C)[C@H](NC(=O)/C(=N\OC2(C(=O)O)CCC2)c2csc(N)n2)C(=O)N1OS(=O)(=O)O [Compound A-2]	4 (≈ 8.38 µM)

same assay, conditions: Pseudomonas aeruginosa PAO1; read-out: Minimal Inhibitory Concentration (MIC)

SMILES	MIC [µg/mL]
CC1(C)[C@H](NC(=O)/C(=N\OC2(C(=O)O)CCC2)c2csc(N)n2)C(=O)N1OS(=O)(=O)O [Compound A-2]	1 (≈ 2.09 µM)

tested on: Salmonella typhi; assay: as above; type: cell-based; details: Salmonella enterica, TYPHI, read-out: Minimal Inhibitory Concentration (MIC)
Description: as §1, §2

SMILES	MIC [µg/mL]
CC1(C)[C@H](NC(=O)/C(=N\OC2(C(=O)O)CCC2)c2csc(N)n2)C(=O)N1OS(=O)(=O)O [Compound A-2]	0.12 (≈ 0.251 µM)

tested on: Serratia marcescens; assay: as above; type: cell-based; details: ATCC21074; Serratia marcescens ATCC 21074; read-out: Minimal Inhibitory Concentration (MIC)
Description: as §1, §2

SMILES	MIC [µg/mL]
CC1(C)[C@H](NC(=O)/C(=N\OC2(C(=O)O)CCC2)c2csc(N)n2)C(=O)N1OS(=O)(=O)O [Compound A-2]	0.25 (≈ 0.524 µM)

tested on: Shigella flexneri; assay: as above; type: cell-based; details: ATCC12022; Shigella flexneri ATCC 12022; read-out: Minimal Inhibitory Concentration (MIC)
Description: as §1, §2

SMILES	MIC [µg/mL]
CC1(C)[C@H](NC(=O)/C(=N\OC2(C(=O)O)CCC2)c2csc(N)n2)C(=O)N1OS(=O)(=O)O [Compound A-2]	0.25 (≈ 0.524 µM)

tested on: Stenotrophomonas maltophilia; assay: as above; type: cell-based; details: ATCC13636; Stenotrophomonas maltophilia ATCC 13636; read-out: Minimal Inhibitory Concentration (MIC)
Description: as §1, §2

SMILES	MIC [µg/mL]
CC1(C)[C@H](NC(=O)/C(=N\OC2(C(=O)O)CCC2)c2csc(N)n2)C(=O)N1OS(=O)(=O)O [Compound A-2]	4 (≈ 8.38 µM)
